Data as given in US5298621A, “Oligopeptide derivatives of ipoxantine endowed with immunomodulating activity and pharmaceutical compositions containing same” (Sigma-Tau Industrie Farmaceutiche Riunite S.p.A., priority 1990, dated 1994).

How the values were obtained:
[1] = tested on: thymocytes; test: "In vitro-ex vivo" mytogen (PHA, Con A)-induced murine thymocite proliferation; parameters: species or system mice; details: for Body weight / Thymus weight / Con A AUC (× 10^-3) / Con A I.S. (stimulation index) / PHA AUC (area under curve) / PHA I.S. (stimulation index) / Thymocytes No. (× 10^7): 25 mg/kg/day i.p. from day -4 to day -1; for Con A AUC (× 10^-3) / Con A I.S. (stimulation index): Con A-induced proliferation; for PHA AUC (area under curve) / PHA I.S. (stimulation index): PHA-induced proliferation; for extent of induced thymocyte proliferation (in words): comparison with ST 789; for Thymocytes No. (× 10^7): pooled samples
Method: Test 7 Assessment of the "in vitro-ex vivo" effect of ST 754, ST 785 and ST 789 on the mytogen (PHA, Con A)-induced murine thymocite proliferation.
The compounds were administered at the dose of 25 mg/kg/day from day -4 to day -1 (thymus excision at day 0). This test was conducted following the procedure described for test 5.
The Stimulation Index (S.I.) is as defined in test 5.

[2] = tested on: DTH reaction vs. SRBC; test: Delayed type hypersensitivity test (DTH) vs. SRBC in mice; assay type: in vivo
Method: Test 6 Assessment of the effect of ST 785 and ST 789 on the delayed type hypersensitivity test (DTH).
Male B6 D2 F1 mice (Charles River, Italy) aged 6, 12 and 16 weeks (8 animals per group) were used.
The compounds were administered i.p., 25 mg/kg/day from day -3 to day +3 (immunization at day 0). Immunization was carried out by s.c. injection in the upper dorsal zone of the animals of 0.2 mL of SRBC (5×10^7 cells/mL).
Four days following the sensitizing injection, the animals were administered the challenge injection to bring about the delayed hypersensibility reaction. 50 μL of SRBC solution (2×10^9 cells/mL) were injected in the left hind foot-pad of the mice. The contralateral foot-pad received an equal volume of PBS. 24 hours after the challenge injection, the animals were sacrificed by cervical dislocation. The legs were amputated and the differences in weight between the left leg (treated with the challenge injection) and the contralateral leg were evaluated.
The mean of weight differences in the legs of the animals of the same experimental group was determined; the differences in the mean values calculated for each experimental group were processed using Student's "t" test (Biostatistics in Pharmacology, loc cit.).
The experimental procedure which was used is described by Miller, T. E. et al, (1973), Immunopotentiation with BCG. Modulation of the response to sheep red blood cells. J. Cancer Inst., 51:1669.

[3] = tested on: Klebsiella oxytoca; test: Protective effect in immunodepressed mice infected with Klebsiella oxytoca; assay type: in vivo; details: 25 mg/kg/day i.p. day -5 to -1, versus 44% mortality in the control group
Method: Test 2 Assessment of the protective effect induced by ST 657, ST 733, ST 754 and ST 789 on immunodepressed mice experimentally infected.
The immunosuppressor (cyclophosphamide) was administered i.p. in 0.2 mL of sterile saline, 100 mg/kg, 5 days before the infective challenge.
Compounds ST 733 and ST 754 (relevant data not shown in the tables) were administered i.p. (25 mg/kg/day) from day -5 (cyclophosphamide administration day) to day -1 (challenge at day 0) and tested utilizing Klebsiella oxytoca as infectious agent.

[4] = tested on: responders (thymus of C57B1/6) induced by stimulators (spleen of DBA/2); test: "In vitro-ex vivo" mixed lymphocyte reaction (MLR); parameters: species or system mice; details: for Body weight / Spleen weight / Thymus weight / ^3 H-TdR Incorporation (cpm ± S.E.) Non stimulated responders / ^3 H-TdR Incorporation (cpm ± S.E.) Stimulated responders / Thymocytes No. (× 10^7): 25 mg/kg/day i.p. from day -5 to day -1; for stimulator splenocytes-induced proliferation of responder thymocytes (in words): comparison with ST 789; for Thymocytes No. (× 10^7): pooled samples
Method: Test 8 Assessment of the "in vitro-ex vivo" effect of ST 733, ST 754 and ST 789 on the mixed lymphocyte reaction (MLR).
Male DBA/2 mice (Charles River, Italy) aged 8 weeks were used as "stimulators" (4 animals per group); male inbred C57 B1/6 mice (Charles River, Italy) were used as "responders" (4 animals per group).
The compounds were administered i.p. from day -5 to day -1 (thymus excision of "responders" at day 0) 25 mg/kg/day.
The experimental procedure that was used is described by Hudson, L. and Hay, F. C., Practical Immunology, Blackwell Scientific Publication 290 (1980).

[5] = tested on: splenocytes; test: "In vitro-ex vivo" mytogen (PHA)-induced splenocyte proliferation in mice
Method: Test 5 Assessment of the "in vitro-ex vivo" effect of ST 733 and ST 789 on the mytogen (PHA)-induced splenocyte proliferation in mice.
Male B6 D2 F1 mice (Charles River, Italy) aged 7-8 weeks (4 animals per group) were used.
PHA (phytohemagglutinine) active on T lymphocytes was used as mytogen. The mytogen was tested at three different concentrations (suboptimal, optimal, superoptimal): 0.5, 2 and 4 mcg/mL/well.
The compounds were administered i.p. 25 mg/kg/day from day -5 to day -1 (spleen excision at day 0).
The experimental procedure was conducted substantially as described by Kirchner et al, "Splenic suppressor macrophages induced in mice by injection of C. parvum", J. Immunol., 1975, 115:1212.
In particular, the cell suspensions obtained from the spleens of the animals of the same group were pooled and the cell concentration was adjusted to 5×10^6 cell/mL.
To volumes of 0.1 mL of each sample, equal volumes of the mytogen preparation were added so as to obtain the previously indicated final concentrations.
Each sample was prepared in triplicate in U-bottom microtiters. A control, to which 0.1 mL of medium was added instead of the mytogen, was also prepared. The control permits the extent of spontaneous proliferation in the absence of stimulation to be assessed.
The samples were incubated at 37° C. for 48 hours and then they were pulsed with 20 μL ^3 H-TdR (25 μCi/mL).
After 18 hours of further incubation, the cells were collected on filters and counted in a beta-counter to evaluate the incorporated radioactivity (in cpm).
The results for each sample are expressed by calculating the value of the area under the curve (AUC) obtained by plotting the values of the incorporated radioactivity (in cpm) versus the three concentrations of mytogen.
In addition to AUC, also the stimulation index (SI) is considered, that is defined as follows: [formula]

[6] = 25 mg/kg/day i.p. from day -5 to day -1

Compound	Body weight [1] [g]	Thymus weight [1] [mg]	Con A AUC (× 10^-3) [1]	Con A I.S. (stimulation index) [1]	PHA AUC (area under curve) [1]	PHA I.S. (stimulation index) [1]	extent of induced thymocyte proliferation (in words) [1]	Thymocytes No. (× 10^7) [1]	mortality [3]	Body weight [4] [g]	Spleen weight [4] [mg]	Thymus weight [4] [mg]	^3 H-TdR Incorporation (cpm ± S.E.) Non stimulated responders [4] [cpm]	^3 H-TdR Incorporation (cpm ± S.E.) Stimulated responders [4] [cpm]	stimulator splenocytes-induced proliferation of responder thymocytes (in words) [4]	Thymocytes No. (× 10^7) [4]	also measured
C[C@H](NC(=O)OCCCCCn1cnc2c(=O)[nH]cnc21)C(=O)N[C@@H](CCCNC(=N)N)C(=O)O [ST 785, N-5-(ipoxantin-9-yl) pentyloxycarbonyl L-alanyl-arginine]	22.5 ± 0.4	73.0 ± 2.7	79 × 10^-3	1.26	4421	1.58	more potent than ST 789	15.1 × 10^7									Mean difference in weight (mg ± S.E.) between treated and untreated foot-pads ([2]; 25 mg/kg/day i.p. from day -3 to day +3 respect to the immunization): 22.4 ± 3.79 mg; response to the DTH test (in words) ([2]; 25 mg/kg/day i.p., p≤0.01): remarkably reduce
N-5-(ipoxantin-9-yl) pentyloxycarbonyl L-(alpha) aspartyl L-arginine sodium salt [ST 754]	22.9 ± 0.5	74.0 ± 3.4	78 × 10^-3	1.25	3132	1.12	more potent than ST 789	15.4 × 10^7	no mortality at all	22.3 ± 0.5	81.2 ± 3.3	57.5 ± 8.4	89.2	11011	more potent than ST 789	12.9 × 10^7	
C[C@H](NC(=O)OCCCCCn1cnc2c(=O)[nH]cnc21)C(=O)NCC(=O)[O-].[Na+] [ST 733, N-5-(ipoxantin-9-yl) pentyloxycarbonyl L-alanyl-glycine sodium salt]									no mortality at all	21.8 ± 0.8	88.7 ± 13.6	61.5 ± 2.7	163.0	11187	more potent than ST 789	15.5 × 10^7	Body weight [5, 6]: 23.4 ± 0.2 g; Spleen weight [5, 6]: 74.0 ± 4.0 mg; Thymus weight [5, 6]: 75.0 ± 4.0 mg; PHA AUC (area under curve, cpm versus three mytogen concentrations) ([5]; PHA 0.5, 2 and 4 mcg/mL/well, 25 mg/kg/day i.p. from day -5 to day -1): 160 × 10^-3; PHA I.S. (stimulation index) ([5]; PHA-induced proliferation, 25 mg/kg/day i.p. from day -5 to day -1): 1.82; mytogen-induced proliferation versus the controls (in words) ([5]; PHA, 25 mg/kg/day i.p.): remarkable increase; Splenocytes No. (× 10^7) ([5]; pooled samples, 25 mg/kg/day i.p. from day -5 to day -1): 14.7 × 10^7
